Assay results taken from ChEMBL document CHEMBL4334532, “Cytotoxic p-Terphenyls from a Marine-Derived Nocardiopsis Species” (J Nat Prod, 2019).

Tests used:
[1] = tested on: MCF7; assay: Cytotoxicity against human MCF7 cells assessed as inhibition of cell growth measured after 72 hrs by MTT assay; type: functional, cell-based; details: MCF7, 72 h
[2] = tested on: L02; assay: Cytotoxicity against human LO2 cells assessed as inhibition of cell growth measured after 72 hrs by MTT assay; type: cell-based; details: L02, 72 h
[3] = Cytotoxicity against human P6C cells assessed as inhibition of cell growth measured after 72 hrs by MTT assay; type: functional, cell-based
[4] = tested on: A549; assay: Cytotoxicity against human A549 cells assessed as inhibition of cell growth measured after 72 hrs by MTT assay; type: functional, cell-based; details: A549, 72 h
[5] = tested on: K562; assay: Cytotoxicity against human K562 cells assessed as inhibition of cell growth measured after 72 hrs by CCK-8 assay; type: functional, cell-based; details: K562, 72 h
[6] = tested on: HuCCT-1; assay: Cytotoxicity against human HuCCT1 cells measured after 72 hrs by Celltiter-Glo assay; type: functional, cell-based; details: HuCCT-1, 72 h
[7] = tested on: NCI-H1975; assay: Cytotoxicity against human NCI-H1975 cells harboring EGFR double L858R/T790M mutant measured after 72 hrs by Celltiter-Glo assay; type: functional, cell-based; details: NCI-H1975, 72 h
[8] = tested on: MV4-11; assay: Cytotoxicity against human MV4-11 cells measured after 72 hrs by Celltiter-Glo assay; type: functional, cell-based; details: MV4-11, 72 h
[9] = tested on: MKN-45; assay: Cytotoxicity against human MKN45 cells measured after 72 hrs by Celltiter-Glo assay; type: functional, cell-based; details: MKN-45, 72 h
[10] = tested on: A-431; assay: Cytotoxicity against human A431 cells measured after 72 hrs by Celltiter-Glo assay; type: functional, cell-based; details: A-431, 72 h
[11] = tested on: MDA-MB-468; assay: Cytotoxicity against human MDA-MB-468 cells measured after 72 hrs by Celltiter-Glo assay; type: functional, cell-based; details: MDA-MB-468, 72 h
[12] = tested on: NCI-N87; assay: Cytotoxicity against human NCI-N87 cells measured after 72 hrs by Celltiter-Glo assay; type: functional, cell-based; details: NCI-N87, 72 h
[13] = tested on: B16-F10; assay: Cytotoxicity against mouse B16/F10 cells measured after 72 hrs by Celltiter-Glo assay; type: functional, cell-based; details: B16-F10, 72 h
[14] = tested on: HCC1954; assay: Cytotoxicity against human HCC1954 cells measured after 72 hrs by Celltiter-Glo assay; type: functional, cell-based; details: HCC1954, 72 h
[15] = tested on: A673; assay: Cytotoxicity against human A673 cells measured after 72 hrs by Celltiter-Glo assay; type: functional, cell-based; details: A673, 72 h
[16] = tested on: BT-474; assay: Cytotoxicity against human BT474 cells measured after 72 hrs by Celltiter-Glo assay; type: functional, cell-based; details: BT-474, 72 h
[17] = tested on: KARPAS-299; assay: Cytotoxicity against human KARPAS299 cells measured after 72 hrs by Celltiter-Glo assay; type: functional, cell-based; details: KARPAS-299, 72 h
[18] = tested on: NCI-H1299; assay: Cytotoxicity against human H1299 cells measured after 72 hrs by Celltiter-Glo assay; type: functional, cell-based; details: NCI-H1299, 72 h
[19] = tested on: U-251; assay: Cytotoxicity against human U251 cells measured after 72 hrs by Celltiter-Glo assay; type: functional, cell-based; details: U-251, 72 h
[20] = tested on: DU-145; assay: Cytotoxicity against human DU145 cells measured after 72 hrs by Celltiter-Glo assay; type: functional, cell-based; details: DU-145, 72 h
[21] = Cytotoxicity against human SPC-A1 cells overexpressing maspin protein measured after 72 hrs by Celltiter-Glo assay; type: functional, cell-based; details: SPCA1, 72 h
[22] = tested on: Hep 3B2; assay: Cytotoxicity against human Hep3B cells measured after 72 hrs by Celltiter-Glo assay; type: functional, cell-based
[23] = tested on: A549; assay: Cytotoxicity against human A549 cells measured after 72 hrs by Celltiter-Glo assay; type: functional, cell-based; details: A549, 72 h
[24] = tested on: K562; assay: Cytotoxicity against human K562 cells measured after 72 hrs by Celltiter-Glo assay; type: functional, cell-based; details: K562, 72 h
[25] = tested on: U-87 MG; assay: Cytotoxicity against human U87 cells measured after 72 hrs by Celltiter-Glo assay; type: functional, cell-based, U-87MG ATCC
[26] = tested on: NCI-H2228; assay: Cytotoxicity against human NCI-H2228 cells measured after 72 hrs by Celltiter-Glo assay; type: functional, cell-based; details: NCI-H2228, 72 h
[27] = tested on: 143B; assay: Cytotoxicity against human 143B cells measured after 72 hrs by Celltiter-Glo assay; type: functional, cell-based
[28] = tested on: MDA-MB-231; assay: Cytotoxicity against human MDA-MB-231 cells measured after 72 hrs by Celltiter-Glo assay; type: functional, cell-based; details: MDA-MB-231, 72 h
[29] = tested on: HCT-116; assay: Cytotoxicity against human HCT116 cells measured after 72 hrs by Celltiter-Glo assay; type: functional, cell-based; details: HCT-116, 72 h
[30] = tested on: HL-60; assay: Cytotoxicity against human HL60 cells measured after 72 hrs by Celltiter-Glo assay; type: functional, cell-based; details: HL-60, 72 h
[31] = tested on: MCF7; assay: Cytotoxicity against human MCF7 cells measured after 72 hrs by Celltiter-Glo assay; type: functional, cell-based; details: MCF7, 72 h

| Compound | IC50 [2] [µM] | IC50 [3] [µM] | IC50 [4] [nM] | IC50 [5] [nM] | IC50 [6] [nM] | IC50 [7] [nM] | IC50 [8] [nM] | IC50 [9] [nM] | IC50 [10] [nM] | IC50 [11] [µM] | IC50 [12] [nM] | IC50 [13] [nM] | IC50 [14] [nM] | IC50 [15] [nM] | IC50 [16] [nM] | IC50 [17] [nM] | IC50 [18] [nM] | IC50 [19] [nM] | IC50 [20] [nM] | IC50 [21] [nM] | other results |
| --- | --- | --- | --- | --- | --- | --- | --- | --- | --- | --- | --- | --- | --- | --- | --- | --- | --- | --- | --- | --- | --- |
| COc1ccc(-c2c(OC)c(O)c(-c3ccc(OC)cc3)c3scnc23)cc1 | 17 | 9.4 | 5100 | 770 | – | – | – | – | – | – | – | – | – | – | – | – | – | – | – | – | IC50 [1]: 6 µM |
| COc1cccc2c1C(=O)c1c(O)c3c(c(O)c1C2=O)C[C@@](O)(C(=O)CO)C[C@@H]3O[C@H]1C[C@H](N)[C@H](O)[C@H](C)O1 [DOXORUBICIN] | 0.7 | 0.71 | 580 | 330 | 48 | 87 | 160 | 190 | 160 | > 100 | 47 | 16 | 45 | 100 | 1900 | 380 | 500 | 170 | 51 | 180 | IC50 [22]: 16 µM; IC50 [23]: 110 nM; IC50 [24]: 21 nM; IC50 [25]: 110 nM; IC50 [26]: 97 nM; IC50 [27]: 100 nM |
| COc1ccc(-c2c3c(c(-c4ccc(OC)cc4)c(O)c2OC)SCC(=O)N3)cc1 | – | – | – | – | > 100000 | > 100000 | > 100000 | > 100000 | > 100000 | > 100 | > 100000 | > 100000 | > 100000 | > 100000 | > 100000 | > 100000 | > 100000 | > 100000 | > 100000 | > 100000 | IC50 [28]: > 100 µM; IC50 [22]: > 100 µM; IC50 [23]: > 100000 nM; IC50 [24]: > 100000 nM; IC50 [29]: > 100 µM; IC50 [25]: > 100000 nM; IC50 [26]: > 100000 nM; IC50 [30]: > 100 µM; IC50 [27]: > 100000 nM; IC50 [31]: > 100 µM |
